Calls of active or inactive are those of the source.
How the values were obtained:
[1] = molecular target: Obg-like ATPase 1 (Homo sapiens, UniProt Q9NTK5)
[2] = molecular target: T1, Isoleucine--tRNA ligase, mitochondrial (Homo sapiens, UniProt Q9NSE4)
T1 sequence (Q9NSE4 whole entry): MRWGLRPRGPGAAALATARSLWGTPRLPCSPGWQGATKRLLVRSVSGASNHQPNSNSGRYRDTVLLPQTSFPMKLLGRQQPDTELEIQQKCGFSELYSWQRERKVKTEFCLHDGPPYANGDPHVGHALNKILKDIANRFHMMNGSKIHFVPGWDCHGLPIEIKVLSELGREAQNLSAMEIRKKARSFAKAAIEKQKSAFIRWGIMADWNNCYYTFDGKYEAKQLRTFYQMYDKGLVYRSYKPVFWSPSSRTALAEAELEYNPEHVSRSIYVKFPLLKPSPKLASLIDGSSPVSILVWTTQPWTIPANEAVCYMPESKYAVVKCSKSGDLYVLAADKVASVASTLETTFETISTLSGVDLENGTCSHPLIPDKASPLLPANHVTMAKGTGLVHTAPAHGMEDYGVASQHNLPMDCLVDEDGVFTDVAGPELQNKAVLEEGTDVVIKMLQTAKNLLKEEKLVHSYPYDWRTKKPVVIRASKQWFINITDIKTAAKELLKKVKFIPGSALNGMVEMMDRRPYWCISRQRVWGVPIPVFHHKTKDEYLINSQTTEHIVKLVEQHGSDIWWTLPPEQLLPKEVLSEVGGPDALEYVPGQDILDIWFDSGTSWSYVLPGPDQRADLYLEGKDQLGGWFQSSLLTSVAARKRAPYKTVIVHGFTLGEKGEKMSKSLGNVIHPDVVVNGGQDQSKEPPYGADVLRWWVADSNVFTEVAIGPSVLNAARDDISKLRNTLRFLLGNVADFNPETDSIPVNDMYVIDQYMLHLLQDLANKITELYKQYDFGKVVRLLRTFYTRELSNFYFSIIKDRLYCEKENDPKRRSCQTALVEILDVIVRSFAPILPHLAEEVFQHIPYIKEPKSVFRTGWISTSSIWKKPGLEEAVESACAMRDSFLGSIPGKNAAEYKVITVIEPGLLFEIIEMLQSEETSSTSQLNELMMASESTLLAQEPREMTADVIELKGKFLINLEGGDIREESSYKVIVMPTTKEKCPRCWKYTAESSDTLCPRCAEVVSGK

[3] = molecular target: Cyclin-dependent kinase 2 (Homo sapiens, UniProt P24941)
[4] = molecular target: T2, Thyroid hormone receptor-associated protein 3 (Homo sapiens, UniProt Q9Y2W1)
T2 sequence (Q9Y2W1 whole entry): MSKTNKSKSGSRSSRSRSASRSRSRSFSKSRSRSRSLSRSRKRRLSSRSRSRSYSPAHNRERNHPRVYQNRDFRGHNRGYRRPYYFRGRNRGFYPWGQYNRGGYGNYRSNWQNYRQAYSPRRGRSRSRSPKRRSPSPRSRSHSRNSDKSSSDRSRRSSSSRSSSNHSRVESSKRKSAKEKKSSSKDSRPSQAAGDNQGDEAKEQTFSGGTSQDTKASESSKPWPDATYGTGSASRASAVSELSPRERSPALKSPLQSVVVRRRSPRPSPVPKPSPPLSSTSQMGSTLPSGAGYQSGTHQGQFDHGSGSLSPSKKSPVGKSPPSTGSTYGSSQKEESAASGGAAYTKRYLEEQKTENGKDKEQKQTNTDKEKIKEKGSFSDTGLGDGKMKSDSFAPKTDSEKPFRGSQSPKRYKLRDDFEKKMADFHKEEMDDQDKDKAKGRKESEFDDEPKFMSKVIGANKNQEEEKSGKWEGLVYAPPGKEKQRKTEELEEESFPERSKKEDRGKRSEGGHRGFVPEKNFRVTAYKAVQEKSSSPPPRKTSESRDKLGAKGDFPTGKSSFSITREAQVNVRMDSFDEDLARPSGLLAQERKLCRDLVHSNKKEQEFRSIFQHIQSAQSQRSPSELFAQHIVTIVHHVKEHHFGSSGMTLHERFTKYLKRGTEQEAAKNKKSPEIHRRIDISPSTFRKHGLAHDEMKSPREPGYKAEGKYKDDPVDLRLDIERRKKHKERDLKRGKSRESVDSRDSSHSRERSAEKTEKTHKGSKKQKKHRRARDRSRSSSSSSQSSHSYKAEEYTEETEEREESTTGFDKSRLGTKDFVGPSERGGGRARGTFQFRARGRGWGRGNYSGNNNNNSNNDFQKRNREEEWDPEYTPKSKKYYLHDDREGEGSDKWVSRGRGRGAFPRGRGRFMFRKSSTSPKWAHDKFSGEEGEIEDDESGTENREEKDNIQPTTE

[5] = molecular target: T3, Inhibitor of nuclear factor kappa-B kinase subunit epsilon (Homo sapiens, UniProt Q14164)
T3 sequence (Q14164 whole entry): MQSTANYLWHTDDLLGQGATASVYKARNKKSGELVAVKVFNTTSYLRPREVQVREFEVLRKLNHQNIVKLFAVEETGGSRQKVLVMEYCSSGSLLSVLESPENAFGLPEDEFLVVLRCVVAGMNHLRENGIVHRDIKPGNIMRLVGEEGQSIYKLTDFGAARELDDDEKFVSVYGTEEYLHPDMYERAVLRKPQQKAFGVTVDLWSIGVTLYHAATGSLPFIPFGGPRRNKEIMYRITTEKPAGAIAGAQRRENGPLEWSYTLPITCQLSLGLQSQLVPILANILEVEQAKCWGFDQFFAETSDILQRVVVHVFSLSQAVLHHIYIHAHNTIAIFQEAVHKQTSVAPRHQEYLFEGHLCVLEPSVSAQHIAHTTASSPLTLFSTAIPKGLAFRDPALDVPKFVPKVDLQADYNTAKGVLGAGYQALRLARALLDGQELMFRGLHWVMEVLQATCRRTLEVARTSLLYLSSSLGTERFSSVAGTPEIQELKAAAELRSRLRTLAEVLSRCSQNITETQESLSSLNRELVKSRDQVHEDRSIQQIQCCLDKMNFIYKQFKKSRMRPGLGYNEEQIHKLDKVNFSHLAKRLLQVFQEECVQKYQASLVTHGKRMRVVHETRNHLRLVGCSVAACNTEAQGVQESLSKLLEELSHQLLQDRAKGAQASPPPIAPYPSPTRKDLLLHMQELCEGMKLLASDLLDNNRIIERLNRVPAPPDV

[6] = molecular target: Dual specificity protein kinase CLK4 (Homo sapiens, UniProt Q9HAZ1)
[7] = molecular target: Serine/threonine-protein kinase ATR (Homo sapiens, UniProt Q13535)

Measured: Kd
Also: in the data inactive means no Kd found up to 30 µM.

Serine/threonine-protein kinase ATR, sequence (Q13535 whole entry): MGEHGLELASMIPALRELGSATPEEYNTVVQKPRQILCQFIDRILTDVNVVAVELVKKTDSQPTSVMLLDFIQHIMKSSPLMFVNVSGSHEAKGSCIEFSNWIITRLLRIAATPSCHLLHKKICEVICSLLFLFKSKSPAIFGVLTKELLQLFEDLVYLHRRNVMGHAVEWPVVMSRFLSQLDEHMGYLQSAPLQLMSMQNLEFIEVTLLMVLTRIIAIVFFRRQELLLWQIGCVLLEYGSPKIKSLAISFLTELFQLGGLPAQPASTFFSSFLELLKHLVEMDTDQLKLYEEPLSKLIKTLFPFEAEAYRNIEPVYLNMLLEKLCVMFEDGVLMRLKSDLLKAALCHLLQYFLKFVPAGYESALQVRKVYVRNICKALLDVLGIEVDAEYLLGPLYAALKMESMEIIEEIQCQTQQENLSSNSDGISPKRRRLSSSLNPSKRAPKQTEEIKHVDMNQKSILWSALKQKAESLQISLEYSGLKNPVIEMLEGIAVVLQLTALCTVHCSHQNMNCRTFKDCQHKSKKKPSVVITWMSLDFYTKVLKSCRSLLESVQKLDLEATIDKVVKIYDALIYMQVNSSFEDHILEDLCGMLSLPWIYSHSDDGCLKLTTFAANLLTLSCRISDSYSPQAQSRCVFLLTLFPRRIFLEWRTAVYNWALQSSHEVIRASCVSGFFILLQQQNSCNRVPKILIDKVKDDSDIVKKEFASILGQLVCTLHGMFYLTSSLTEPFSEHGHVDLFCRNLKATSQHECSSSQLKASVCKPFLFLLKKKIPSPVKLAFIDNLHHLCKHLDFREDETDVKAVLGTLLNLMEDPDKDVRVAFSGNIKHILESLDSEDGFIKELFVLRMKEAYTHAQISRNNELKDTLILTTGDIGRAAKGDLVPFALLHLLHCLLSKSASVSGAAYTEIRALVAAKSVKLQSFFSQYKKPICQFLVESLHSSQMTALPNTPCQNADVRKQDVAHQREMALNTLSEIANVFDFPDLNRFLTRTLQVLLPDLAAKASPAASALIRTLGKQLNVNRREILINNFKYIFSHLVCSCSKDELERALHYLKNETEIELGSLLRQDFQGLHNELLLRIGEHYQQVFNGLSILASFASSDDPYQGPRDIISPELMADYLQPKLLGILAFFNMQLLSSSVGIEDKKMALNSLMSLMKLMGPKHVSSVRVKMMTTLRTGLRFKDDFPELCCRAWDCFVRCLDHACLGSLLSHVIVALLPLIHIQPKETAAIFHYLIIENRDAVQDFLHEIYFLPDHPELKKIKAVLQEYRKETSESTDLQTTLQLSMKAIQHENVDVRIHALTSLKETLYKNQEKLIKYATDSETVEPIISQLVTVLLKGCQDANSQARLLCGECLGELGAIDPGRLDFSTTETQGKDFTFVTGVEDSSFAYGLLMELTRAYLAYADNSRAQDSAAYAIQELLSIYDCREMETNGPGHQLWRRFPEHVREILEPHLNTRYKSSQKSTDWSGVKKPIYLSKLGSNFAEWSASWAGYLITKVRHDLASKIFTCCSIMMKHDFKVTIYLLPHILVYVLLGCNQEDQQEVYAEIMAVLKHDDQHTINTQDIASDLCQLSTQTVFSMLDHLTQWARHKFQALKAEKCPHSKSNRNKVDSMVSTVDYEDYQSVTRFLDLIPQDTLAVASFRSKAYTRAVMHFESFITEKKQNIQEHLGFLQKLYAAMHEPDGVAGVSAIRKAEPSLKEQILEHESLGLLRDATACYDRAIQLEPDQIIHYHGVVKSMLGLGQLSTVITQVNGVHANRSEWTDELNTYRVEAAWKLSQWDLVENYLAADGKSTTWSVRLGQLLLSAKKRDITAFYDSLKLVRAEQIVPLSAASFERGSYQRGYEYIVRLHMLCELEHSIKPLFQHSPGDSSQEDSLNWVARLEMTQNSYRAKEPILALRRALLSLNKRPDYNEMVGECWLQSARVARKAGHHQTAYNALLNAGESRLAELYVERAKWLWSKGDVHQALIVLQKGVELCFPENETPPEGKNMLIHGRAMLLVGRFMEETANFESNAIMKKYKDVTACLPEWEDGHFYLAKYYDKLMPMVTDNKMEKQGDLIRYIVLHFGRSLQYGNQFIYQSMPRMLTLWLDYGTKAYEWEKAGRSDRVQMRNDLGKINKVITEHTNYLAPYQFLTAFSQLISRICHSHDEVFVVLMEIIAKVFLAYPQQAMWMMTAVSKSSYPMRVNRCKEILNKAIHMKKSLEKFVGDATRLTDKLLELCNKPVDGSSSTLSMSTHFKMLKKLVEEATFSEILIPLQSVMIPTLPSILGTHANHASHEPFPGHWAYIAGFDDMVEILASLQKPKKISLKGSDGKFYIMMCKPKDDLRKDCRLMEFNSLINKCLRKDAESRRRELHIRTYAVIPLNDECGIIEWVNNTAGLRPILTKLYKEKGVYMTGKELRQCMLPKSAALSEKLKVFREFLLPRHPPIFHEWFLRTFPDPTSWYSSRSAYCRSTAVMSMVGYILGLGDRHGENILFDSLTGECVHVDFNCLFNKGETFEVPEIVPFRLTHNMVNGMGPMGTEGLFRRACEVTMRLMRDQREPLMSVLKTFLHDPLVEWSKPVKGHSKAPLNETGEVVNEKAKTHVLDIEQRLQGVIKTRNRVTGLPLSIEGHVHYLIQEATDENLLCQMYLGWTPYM
Obg-like ATPase 1, sequence (Q9NTK5 whole entry, looked up): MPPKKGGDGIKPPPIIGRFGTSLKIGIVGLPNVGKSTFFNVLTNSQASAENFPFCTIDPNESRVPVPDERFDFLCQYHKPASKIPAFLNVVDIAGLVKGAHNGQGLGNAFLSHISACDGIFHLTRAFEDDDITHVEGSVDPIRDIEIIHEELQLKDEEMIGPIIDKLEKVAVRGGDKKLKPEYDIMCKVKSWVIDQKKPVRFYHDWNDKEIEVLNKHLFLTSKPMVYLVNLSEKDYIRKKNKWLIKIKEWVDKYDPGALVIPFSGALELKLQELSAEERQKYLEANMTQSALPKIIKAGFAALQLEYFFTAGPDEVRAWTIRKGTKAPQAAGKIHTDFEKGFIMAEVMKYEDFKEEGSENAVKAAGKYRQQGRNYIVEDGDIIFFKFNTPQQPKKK
Dual specificity protein kinase CLK4, sequence (Q9HAZ1 whole entry): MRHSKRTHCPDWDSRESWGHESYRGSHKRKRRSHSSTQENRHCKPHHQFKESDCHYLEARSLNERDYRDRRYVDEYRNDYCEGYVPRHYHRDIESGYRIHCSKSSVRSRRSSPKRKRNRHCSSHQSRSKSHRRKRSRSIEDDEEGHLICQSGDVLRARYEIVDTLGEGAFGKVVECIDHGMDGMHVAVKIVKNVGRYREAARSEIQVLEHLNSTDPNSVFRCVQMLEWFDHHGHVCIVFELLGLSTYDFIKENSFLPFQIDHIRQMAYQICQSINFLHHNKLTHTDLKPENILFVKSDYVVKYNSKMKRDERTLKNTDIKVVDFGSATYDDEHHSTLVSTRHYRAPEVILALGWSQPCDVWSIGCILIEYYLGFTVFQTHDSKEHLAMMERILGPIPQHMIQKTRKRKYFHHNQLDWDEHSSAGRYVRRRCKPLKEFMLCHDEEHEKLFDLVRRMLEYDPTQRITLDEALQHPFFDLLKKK

CC[C@@H]1C(=O)N(C)c2cnc(Nc3ccc(C(=O)N[C@H]4CC[C@H](N5CCN(CC6CC6)CC5)CC4)cc3OC)nc2N1C(C)C [VOLASERTIB]
inactive: [1] > 30 µM | [2] > 30 µM | [3] > 30 µM | [4] > 30 µM | [5] > 30 µM | [6] > 30 µM

OCCn1cc(-c2cnc3nnn(Cc4ccc5ncccc5c4)c3n2)cn1 [PF-04217903]
inactive: [1] > 30 µM | [2] > 30 µM | [7] > 30 µM | [3] > 30 µM | [4] > 30 µM

CC(=O)Nc1cccc(-n2c(=O)n(C3CC3)c(=O)c3c(Nc4ccc(I)cc4F)n(C)c(=O)c(C)c32)c1 [TRAMETINIB]
inactive: [1] > 30 µM | [2] > 30 µM | [3] > 30 µM | [4] > 30 µM | [5] > 30 µM | [6] > 30 µM

CNC(=O)c1ccc(-c2cnc3ncc(Cc4ccc5ncccc5c4)n3n2)cc1F [CAPMATINIB]
inactive: [1] > 30 µM | [2] > 30 µM | [7] > 30 µM | [3] > 30 µM | [5] > 30 µM

O=C(O)[C@]1(Cc2cccc(Nc3nccs3)n2)CC[C@@H](Oc2cccc(Cl)c2F)CC1 [MK-5108]
inactive: [1] > 30 µM | [2] > 30 µM | [3] > 30 µM | [4] > 30 µM | [5] > 30 µM | [6] > 30 µM

C[C@@H](Nc1cc(F)cc(F)c1)c1cc(C(=O)N(C)C)cc2c(=O)cc(N3CCOCC3)oc12 [AZD-8186]
inactive: [7] > 30 µM | [3] > 30 µM | [5] > 30 µM

Nc1nc(N)c2nc(-c3cccc(O)c3)c(-c3cccc(O)c3)nc2n1 [TG100-115]
inactive: [1] > 30 µM | [2] > 30 µM | [7] > 30 µM | [4] > 30 µM

CCc1cnn2c(NCc3ccc[n+]([O-])c3)cc(N3CCCC[C@H]3CCO)nc12 [DINACICLIB]
inactive: [1] > 30 µM | [2] > 30 µM | [7] > 30 µM | [4] > 30 µM

CN1CCC(COc2cnc(-c3cccc(Cn4nc(-c5cccc(C#N)c5)ccc4=O)c3)nc2)CC1 [TEPOTINIB]
inactive: [1] > 30 µM | [2] > 30 µM | [7] > 30 µM | [4] > 30 µM | [5] > 30 µM

COc1cc2nccc(Oc3ccc(NC(=O)NC4CC4)c(Cl)c3)c2cc1C(N)=O [LENVATINIB]
inactive: [1] > 30 µM | [2] > 30 µM | [3] > 30 µM | [4] > 30 µM | [5] > 30 µM | [6] > 30 µM

O=c1sn(-c2cccc3ccccc23)c(=O)n1Cc1ccccc1 [TIDEGLUSIB]
inactive: [1] > 30 µM | [2] > 30 µM | [3] > 30 µM | [4] > 30 µM | [5] > 30 µM | [6] > 30 µM

CNC(=O)c1cc(Oc2ccc(NC(=O)Nc3ccc(Cl)c(C(F)(F)F)c3)c(F)c2)ccn1 [REGORAFENIB]
inactive: [1] > 30 µM | [2] > 30 µM | [3] > 30 µM | [5] > 30 µM | [6] > 30 µM

Cc1ccc(-n2nc(C(C)(C)C)cc2NC(=O)NCc2cc(F)ccc2Oc2ccc3c(cnn3CCO)c2)cc1 [PEXMETINIB]
inactive: [1] > 30 µM | [2] > 30 µM | [3] > 30 µM | [5] > 30 µM | [6] > 30 µM

CCN1CCN(Cc2ccc(-c3cc4c(N[C@H](C)c5ccccc5)ncnc4[nH]3)cc2)CC1 [AEE-788]
inactive: [1] > 30 µM | [7] > 30 µM | [3] > 30 µM | [4] > 30 µM | [5] > 30 µM

COCCNCc1ccc(-c2cc3nccc(Oc4ccc(NC(=S)NC(=O)Cc5ccc(F)cc5)cc4F)c3s2)nc1 [GLESATINIB]
inactive: [1] > 30 µM | [2] > 30 µM | [3] > 30 µM | [4] > 30 µM | [5] > 30 µM | [6] > 30 µM

CN1CC[C@@H](c2c(O)cc(O)c3c(=O)cc(-c4ccccc4Cl)oc23)[C@@H]1CO
inactive: [1] > 30 µM | [2] > 30 µM | [3] > 30 µM | [4] > 30 µM | [5] > 30 µM | [6] > 30 µM

Cc1cc(-c2cc(O)ccc2Cl)cc2nnc(Nc3ccc(OCCN4CCCC4)cc3)nc12
inactive: [1] > 30 µM | [7] > 30 µM | [3] > 30 µM | [5] > 30 µM

— ChEMBL document CHEMBL3991601, “The target landscape of clinical kinase drugs” (Science, 2017)
